Laboratory results from patent publication US11571418B2, “Platinum compounds that inhibit constitutive STAT3 signaling and induce cell cycle arrest and apoptosis of malignant cells” (H. LEE MOFFITT CANCER CENTER AND RESEARCH INSTITUTE, INC., priority 2011, dated 2023).

Assays:
[1] = test system: hSIE oligonucleotide probe; test: Pre-treatment of hSIE oligonucleotide with compound, then Stat3 binding by EMSA; conditions: oligonucleotide treated 30 min, then radiolabeled
Description: To investigate the possibility that PLATINUM-401 might alter the integrity of the hSIE oligonucleotide probe that is used in the DNA-binding activity studies and thereby inhibit Stat3 binding, the oligonucleotide was first treated with PLATINUM-401 for 30 min. Pre-treated oligonucleotide was then radiolabeled and tested for its ability to bind to activated Stat3 in vitro. […] While PLATINUM-401 was in direct contact with the oligonucleotide probe during the pre-treatment stage and prior to radiolabeling of the probe, it is unlikely to have been retained with the oligonucleotide probe following purification of the probe and therefore would not have come into contact with Stat3 protein at the time of the in vitro DNA-binding assay.

NFκB-Luc = test: NFκB promoter-driven luciferase reporter assay; assay type: cell-based; conditions: transient transfection in mouse fibroblasts
Description: FIGS. 3A-3D. Inhibition of Stat3-mediated gene expression by PLATINUM-401. (FIG. 3A) and (FIG. 3B) v-Src-transformed mouse fibroblasts that stably express Stat3-dependent (NIH3T3/v-Src/pLucTKS3) and Stat3-independent (NIH3T3/v-Src/pRLSRE) luciferase reporters or β-galactosidase (β-gal), as well as normal mouse fibroblast (NIH3T3) transiently transfected with pLucTKS3, pGL2-VEGF-Luc, NFkB-Luc or pLucSRE together with or without v-Src were treated with or without PLATINUM-401 for 48 h. Cytosolic extracts were then prepared from cells for luciferase and […] activities measurements. […]
Cell proliferation and TUNEL assays—Proliferating cells were first treated with or without PLATINUM-401 for up to 48 h. A portion of cells were harvested for BrdU incorporation following the manufacturer's (BD Biosciences Pharmingen, San Diego, Calif.) instructions and analyzed by flow cytometry. Harvested cells were also analyzed for apoptosis via detection of TdT-mediated dUTP nick-end labeling (TUNEL) assay using Apoptosis Detection Systems Fluorescein according to the manufacturer's (Roche, Indianapolis, Ind.) instructions. […]
To further investigate the activities of PLATINUM-401, the inventors treated malignant cells and measured effects on Stat3 signaling. […]

[2] = test system: malignant cells harboring constitutively-active Stat3; test: Ki67 proliferation index by immunohistochemistry; assay type: cell-based
Description: FIGS. 5A and 5B. Evaluation for effects of PLATINUM-401 on cellular constitutive Stat3 activation and cell proliferation. Normal or malignant cells were treated with or without PLATINUM-401 and nuclear extracts were prepared for Stat3 DNA-binding activity assay with hSIE probe, or cells were processed for nuclear Ki67 immunohistochemistry. (FIG. 5A) EMSA analysis of Stat3 DNA-binding activity; (FIG. 5B) Graphical representations of quantified nuclear staining of Ki-67 proliferation index. Stat3:Stat3-DNA complexes in gels are labeled. The Ki-67 proliferation indexes were calculated as the percent positive tumor cells relative to the total number of cells. […]
Immunohistochemistry—The indirect peroxidase-antiperoxidase test was performed on cytospins prepared from cell lines (control and treated). […] The presence of Ki-67 nuclear staining was calculated as percent positive tumor cells in relation to the total number of cells.
The inventors further examined the biological effects of PLATINUM-401 and determined whether any changes might correlate with the inhibition of constitutively-active Stat3. […]
Changes in cell proliferation induced by treatment with PLATINUM-401 were assayed in terms of Ki67 proliferation index by immunohistochemistry. The presence of Ki-67 nuclear staining was calculated as the percent positive tumor cells in relation to the total number of cells.

CC(O)CN1CCN(CC(C)O)CC1 (stereo not drawn) [PLATINUM-401]
effect of pre-treatment of hSIE oligonucleotide on its ability to bind activated Stat3 [1]: no observable effect
induction of NFκB promoter-driven luciferase reporter activity (NFκB-Luc): no inhibitory effects
Ki67 nuclear staining [2]: significant decreases
